As a reminder, the Ki is a dissociation constant, usually derived from enzyme kinetics or from competition with a known ligand. A high value points to weaker binding.

Bounds are passed on as bounds.

The source of these data is ChEMBL document CHEMBL1137403, “Discovery of 2-[4-{{2-(2S,5R)-2-cyano-5-ethynyl-1-pyrrolidinyl]-2-oxoethyl]amino]- 4-methyl-1-piperidinyl]-4-pyridinecarboxylic acid (ABT-279): a very potent, selective, effective, and well-tolerated inhibitor of dipeptidyl peptidase-IV, useful for the treatment of diabetes” (J Med Chem, 2006).

Assay [1] concerns the target Dipeptidyl peptidase 8 (Homo sapiens, UniProt Q6V1X1).
Assay [2] has as its target Dipeptidyl peptidase 9 (Homo sapiens, UniProt Q86TI2).

Sequence of Dipeptidyl peptidase 8 (Q6V1X1 whole entry): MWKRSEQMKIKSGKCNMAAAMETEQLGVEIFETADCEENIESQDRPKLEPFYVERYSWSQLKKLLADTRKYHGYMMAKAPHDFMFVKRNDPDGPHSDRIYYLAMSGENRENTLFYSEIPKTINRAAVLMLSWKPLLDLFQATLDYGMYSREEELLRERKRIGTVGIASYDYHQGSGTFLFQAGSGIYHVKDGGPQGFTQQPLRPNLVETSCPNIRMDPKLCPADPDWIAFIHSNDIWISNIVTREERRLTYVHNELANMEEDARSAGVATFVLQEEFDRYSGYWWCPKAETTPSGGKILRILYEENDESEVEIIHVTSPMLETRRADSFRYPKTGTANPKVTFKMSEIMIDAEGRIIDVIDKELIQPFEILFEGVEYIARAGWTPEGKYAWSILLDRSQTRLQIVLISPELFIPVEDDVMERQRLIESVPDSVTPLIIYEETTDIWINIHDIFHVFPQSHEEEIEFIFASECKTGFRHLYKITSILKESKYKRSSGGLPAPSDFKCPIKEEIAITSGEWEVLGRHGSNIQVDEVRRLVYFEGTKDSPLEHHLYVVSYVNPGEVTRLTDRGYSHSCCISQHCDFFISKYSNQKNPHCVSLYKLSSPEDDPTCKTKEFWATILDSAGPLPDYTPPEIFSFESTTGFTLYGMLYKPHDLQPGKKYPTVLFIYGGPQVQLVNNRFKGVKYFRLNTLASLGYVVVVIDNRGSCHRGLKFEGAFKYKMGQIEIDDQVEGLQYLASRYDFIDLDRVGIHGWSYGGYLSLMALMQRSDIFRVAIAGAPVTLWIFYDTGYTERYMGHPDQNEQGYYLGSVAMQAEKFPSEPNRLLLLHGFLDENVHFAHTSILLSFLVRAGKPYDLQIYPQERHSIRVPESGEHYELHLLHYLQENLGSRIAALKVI
Sequence of Dipeptidyl peptidase 9 (Q86TI2 whole entry): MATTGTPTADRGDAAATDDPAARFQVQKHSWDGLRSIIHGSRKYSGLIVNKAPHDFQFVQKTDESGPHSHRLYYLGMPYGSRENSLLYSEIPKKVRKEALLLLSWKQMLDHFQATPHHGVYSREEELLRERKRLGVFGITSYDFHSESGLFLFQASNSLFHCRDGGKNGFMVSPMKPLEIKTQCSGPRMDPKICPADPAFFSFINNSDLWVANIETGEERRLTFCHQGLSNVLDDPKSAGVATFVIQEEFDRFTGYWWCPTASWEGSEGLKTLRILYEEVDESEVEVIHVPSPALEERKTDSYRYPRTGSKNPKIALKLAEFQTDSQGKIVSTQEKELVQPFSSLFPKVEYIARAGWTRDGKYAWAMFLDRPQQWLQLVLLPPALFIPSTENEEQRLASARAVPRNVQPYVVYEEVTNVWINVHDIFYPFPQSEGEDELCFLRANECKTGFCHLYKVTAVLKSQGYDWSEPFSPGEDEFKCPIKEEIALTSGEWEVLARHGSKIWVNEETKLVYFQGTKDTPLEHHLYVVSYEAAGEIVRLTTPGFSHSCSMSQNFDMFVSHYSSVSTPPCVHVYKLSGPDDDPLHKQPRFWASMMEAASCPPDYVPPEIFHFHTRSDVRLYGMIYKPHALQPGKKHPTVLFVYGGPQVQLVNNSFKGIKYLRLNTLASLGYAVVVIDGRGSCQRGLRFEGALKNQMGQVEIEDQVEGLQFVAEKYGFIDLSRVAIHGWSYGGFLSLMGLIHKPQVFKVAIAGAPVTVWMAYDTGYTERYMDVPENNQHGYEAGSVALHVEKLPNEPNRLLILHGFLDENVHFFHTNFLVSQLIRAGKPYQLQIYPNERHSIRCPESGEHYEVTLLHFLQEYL

In assay [1], `C#C[C@H]1CC[C@@H](C#N)N1C(=O)CN[C@H]1CC[C@H](Oc2ccc(C#N)cn2)CC1` (mixture of isomers) had a Ki of over 30 µM.

With `C#C[C@H]1CC[C@@H](C#N)N1C(=O)CNC1CCCC1`, the Ki in assay [1] and in assay [2] was over 30 µM in each case.
